Measurements from PubChem BioAssay (NCI).
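A five-concentration, 48-hour dose response in 96-well plates underlies each endpoint, interpolated linearly between surrounding concentrations. TGI is the concentration that stops growth completely.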

Tests used:
Assay in all cases: inhibition of tumour cell growth, NCI panel, 48 h
RPMI-8226 leukemia = test system: RPMI-8226 leukemia
LXFL 529 NSCLC = test system: LXFL 529 NSCLC
HT29 colon = test system: HT29 colon
SK-OV-3 ovarian = test system: SK-OV-3 ovarian
LOX IMVI melanoma = test system: LOX IMVI melanoma
SK-MEL-2 melanoma = test system: SK-MEL-2 melanoma
DMS 114 small cell lung = test system: DMS 114 small cell lung
NCI-H460 lung = test system: NCI-H460 lung
SNB-78 CNS = test system: SNB-78 CNS
M19-MEL melanoma = test system: M19-MEL melanoma
HS 578T breast = test system: HS 578T breast

Row | SMILES | TGI (RPMI-8226 leukemia) | TGI (LXFL 529 NSCLC) | TGI (HT29 colon) | TGI (SK-OV-3 ovarian) | TGI (LOX IMVI melanoma) | TGI (SK-MEL-2 melanoma) | TGI (DMS 114 small cell lung) | TGI (NCI-H460 lung) | TGI (SNB-78 CNS) | TGI (M19-MEL melanoma) | TGI (HS 578T breast)
1 | Fc1ccccc1C1CC(C(c2ccccc2)c2ccccc2)=Nc2ccccc2S1 (stereo not given) | 25 µM | 15.3 µM | 26.3 µM | 68.6 µM | 19.7 µM | 21.6 µM | 23.6 µM | 23.2 µM |  |  | 
2 | O=c1nc2cc(-c3ccccc3)[nH]c2nn1-c1c(Cl)cc(Cl)cc1Cl | 61.1 µM | > 100 µM | 88.7 µM | 92.4 µM | 50 µM | 94 µM | > 100 µM | > 100 µM | > 100 µM | 63.2 µM | 
3 | COc1cc(C2C(C(=O)Nc3ccccc3)=C(C)NC(C)=C2C(=O)Nc2ccccc2)ccc1O | > 100 µM | > 100 µM | 33.8 µM |  |  | 76.8 µM | > 100 µM | > 100 µM | > 100 µM | > 100 µM | 
4 | COc1ccc(O)c2c1C(=O)CCCC2=O | > 100 µM | > 100 µM | > 100 µM | > 100 µM | > 100 µM | > 100 µM | > 100 µM | > 100 µM | > 100 µM | > 100 µM | 
5 | C[Si](C)(C)/C=C/CN1C(=O)CCC1O (stereo not given) | > 100 µM | > 100 µM | > 100 µM | > 100 µM | > 100 µM | > 100 µM | > 100 µM | > 100 µM | > 100 µM | > 100 µM | 
6 | CN(O)C(=O)Cc1ccccc1 | > 100 µM | > 100 µM | > 100 µM | > 100 µM | > 100 µM |  | > 100 µM | > 100 µM | > 100 µM | > 100 µM | 
7 | COc1cc(Br)c(CC2=NCCc3cc(OC)c(OC)cc32)cc1OC | 73 µM | > 100 µM | > 100 µM | > 100 µM | > 100 µM | > 100 µM | 68.1 µM | > 100 µM |  | > 100 µM | 
8 | COc1cc2c(cc1C)n(O)c(C)c(C(=O)C/C(=N/NC(=O)C[N+](C)(C)C)C(=O)Nc1cccc(Cl)c1C)[n+]2=O | > 100 µM | > 100 µM | > 100 µM |  | > 100 µM | > 100 µM | > 100 µM | > 100 µM | > 100 µM |  | 
9 | O=c1cccccc1NCCCCNc1cccccc1=O | > 100 µM | > 100 µM | > 100 µM | > 100 µM | > 100 µM | > 100 µM | > 100 µM | > 100 µM | > 100 µM | > 100 µM | 
10 | COc1cccc(C2C(C(=O)Nc3cc(=O)n(C)c(=O)n3C)=C(C)NC(C)=C2C(=O)Nc2cc(=O)n(C)c(=O)n2C)c1O | > 100 µM | > 100 µM | > 100 µM | > 100 µM | > 100 µM | > 100 µM | > 100 µM | > 100 µM | > 100 µM | > 100 µM | 
11 | Cc1ccc(Nc2ccc(Nc3ccc(C)cc3)c3c2C(=O)c2c(O)ccc(O)c2C3=O)cc1 | > 100 µM | > 100 µM |  | > 100 µM | > 100 µM | > 100 µM | > 100 µM | > 100 µM | > 100 µM | > 100 µM | 
12 | O=[N+]([O-])c1ccccc1C1N2CCCCC2[C@@H]2c3[nH]c4ccccc4c3CCN12 (stereo not given in full) | 61.3 µM | 22.8 µM | 20.8 µM | 54.3 µM |  | 26.5 µM | 14.7 µM | 34.7 µM | 32.2 µM | 18.5 µM | 
13 | O=c1[nH]c(=S)[nH]c(O)c1/C=C1\C=CC=N1 | 23 µM | 21.9 µM | 54.2 µM | > 100 µM | 46.2 µM | 51.4 µM | 23.3 µM | 65.5 µM | 67.4 µM | > 100 µM | 
14 | CCC1(CN(C)C)CC/C(=C\c2ccc3c(c2)OCO3)C1=O (stereo not given) | > 100 µM | > 100 µM | > 100 µM |  | > 100 µM | > 100 µM |  |  | > 100 µM | > 100 µM | 
15 | Cc1nc(C(N)=S)sc1C(=O)/C=C/c1cccc(O)c1 | > 100 µM |  | > 100 µM | > 100 µM | > 100 µM | > 100 µM | > 100 µM | > 100 µM | > 100 µM | > 100 µM | 
16 | CCC1(OC(C)=O)C(=O)OCc2c1cc1n(c2=O)Cc2cc3ccccc3nc2-1 (stereo not given) | > 100 µM | > 100 µM | > 100 µM | > 69.6 µM | 13.5 µM | > 100 µM | 11.9 µM | 7.15 µM | > 100 µM | > 100 µM | 
17 | Cn1c(O)c(C(=O)Nc2ccc([N+](=O)[O-])cc2)c(=O)n(C)c1=S | > 100 µM | > 50.1 µM | 8.33 µM | > 81.1 µM | > 24.9 µM | 5.53 µM | 4.81 µM | 24.1 µM |  | > 45.3 µM | 5.85 µM
18 | Cc1cc(C)c(C(=O)OC(c2ccccc2)C(c2ccccc2)N2CCOCC2)c(C)c1 (stereo not given) | 85.3 µM | > 100 µM | > 100 µM | > 100 µM | > 100 µM | > 100 µM | > 100 µM | > 100 µM | > 100 µM | > 100 µM | 
19 | COc1ccc(NC(=O)C(=O)C2NC(=S)NC2=O)c(OC)c1 (stereo not given) | > 100 µM | > 100 µM | > 100 µM | > 100 µM | > 100 µM | > 100 µM | > 100 µM | > 100 µM | > 100 µM | > 100 µM | 
20 | O=[N+]([O-])c1ccc(Cl)c(C2SCc3nc4ccccc4n32)c1 (stereo not given) | > 100 µM | > 100 µM | > 100 µM | 88 µM |  | > 100 µM | > 100 µM | 81.1 µM | > 100 µM | > 100 µM | 
